Measurements taken from article PMC11638965, “Leveraging Dual-Ligase Recruitment to Enhance Protein Degradation via a Heterotrivalent Proteolysis Targeting Chimera” (Journal of the American Chemical Society, 2024).
Values joined by “and” are separate entries in the source; they are usually repeats but may differ in a detail not shown here. Equal entries are not always repeated.

Experiments:
Assay type in all cases: cell-based
CRBN = CRBN (Homo sapiens, UniProt Q96SW2); assay: Western blot dose-response degradation in HEK293 cells; set-up: Western blot data for BET, CRBN and VHL protein levels; endogenous in cells; host or cells: HEK293 (ATCC); settings: for fold weaker degradation of CRBN compared with aniline tethered matched pair: 31 and 32 compared with 23 and 27, respectively, DC50, HEK293 Western blot; for DC50: HEK293 cells, 6 h, Western blot, mean ± S.E.M. of three experiments, values marked b mean ± S.D. of two
Sequence of CRBN (Q96SW2 whole entry): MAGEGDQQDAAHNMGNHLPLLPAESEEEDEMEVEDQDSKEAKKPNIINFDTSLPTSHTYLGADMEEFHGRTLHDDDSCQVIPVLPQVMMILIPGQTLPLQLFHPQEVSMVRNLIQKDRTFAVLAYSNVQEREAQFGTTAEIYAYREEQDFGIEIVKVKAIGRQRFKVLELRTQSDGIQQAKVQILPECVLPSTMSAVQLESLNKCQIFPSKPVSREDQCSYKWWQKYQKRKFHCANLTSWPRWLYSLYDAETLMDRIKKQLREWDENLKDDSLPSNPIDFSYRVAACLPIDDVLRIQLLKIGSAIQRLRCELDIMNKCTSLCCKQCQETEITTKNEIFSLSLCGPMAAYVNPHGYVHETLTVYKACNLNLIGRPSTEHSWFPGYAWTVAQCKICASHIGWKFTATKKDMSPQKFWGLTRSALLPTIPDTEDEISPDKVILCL
Method: (§1) HEK293 cells were obtained from ATCC. HEK293 was cultured in DMEM supplemented with 10% (v/v) fetal bovine serum (FBS), 1% […] and 1% (v/v) penicillin/streptomycin (pen/strep) at 37 °C, 5% CO2, and 95% humidity.
(§2) HEK293 cells were plated at a density of 5 × 10^5 cells per well of a six well plate a day prior to initiation of the experiment. Compounds were dissolved to a 10 mM concentrated stock solution in DMSO from which the compounds were further diluted to a working concentration range of 1 μM to 100 pM in DMEM and was subsequently added to cells at the initiation of the experiment. An additional vehicle control was added to cells alongside compound treatments. Cells were left to incubate with compound for 6 h at 37 °C, 5% CO2, and 95% humidity. Cells were then subsequently washed twice with PBS before being harvested in RIPA buffer supplemented with protease inhibitor cocktail and Benzonase Nuclease before being store at −20 °C.
(§3) Protein concentration was determined using the BCA assay. Samples were then prepared in LDS buffer containing 5% 1 M DTT and subsequently loaded onto NuPAGE 4–12% Bis-Tris Midi gels, followed by the transfer of the proteins onto nitrocellulose membranes. The membranes were blocked for 1 h prior to incubation with the primary antibodies using 5% Milk TBST. Membranes were incubated at 4 °C in either BRD4(Ab128874), BRD3(Ab50818), BRD2(Ab139690), VHL(CST#68547) and CRBN(CST#71810) primary antibody overnight. Following overnight incubation, the membranes were incubated with complementary IRDye 800CW secondary antibody and a hFAB Rhodamine Anti-Tubulin Primary Antibody (loading control) for 1 h and then imaged with a Bio-Rad imager. All Western blots were analyzed for band intensities using Image Lab (Bio-Rad). The data extracted from these blots were then plotted and analyzed using Prism (v. 10.2.2, GraphPad). Linear regression curve fitting was used to calculate pDC50 values. The standard deviation of the pDC50 was calculated for all compounds that had two independent repeats and the standard error of the mean calculated for all compounds that had three independent repeats. All Western blotting figures were developed in Adobe illustrator.

BRD2 [1] = molecular target: T1, BRD2 (Homo sapiens, UniProt P25440); assay: Live cell kinetic HiBiT degradation assay, HiBiT-BRD2 HEK293 cells; settings: for λmax BRD2 (degradation rate): HiBiT-BRD2 knock-in HEK293 cells; for DC50: HiBiT-BRD2 CRISPR knock-in HEK293 cells, live cell kinetic degradation, 24 h, read-out: Dmax 50 BRD2
T1 construct: HiBiT, is appended to the N-terminus of endogenous BRD2, BRD3, and BRD4; endogenous in cells
T1 sequence (P25440 whole entry): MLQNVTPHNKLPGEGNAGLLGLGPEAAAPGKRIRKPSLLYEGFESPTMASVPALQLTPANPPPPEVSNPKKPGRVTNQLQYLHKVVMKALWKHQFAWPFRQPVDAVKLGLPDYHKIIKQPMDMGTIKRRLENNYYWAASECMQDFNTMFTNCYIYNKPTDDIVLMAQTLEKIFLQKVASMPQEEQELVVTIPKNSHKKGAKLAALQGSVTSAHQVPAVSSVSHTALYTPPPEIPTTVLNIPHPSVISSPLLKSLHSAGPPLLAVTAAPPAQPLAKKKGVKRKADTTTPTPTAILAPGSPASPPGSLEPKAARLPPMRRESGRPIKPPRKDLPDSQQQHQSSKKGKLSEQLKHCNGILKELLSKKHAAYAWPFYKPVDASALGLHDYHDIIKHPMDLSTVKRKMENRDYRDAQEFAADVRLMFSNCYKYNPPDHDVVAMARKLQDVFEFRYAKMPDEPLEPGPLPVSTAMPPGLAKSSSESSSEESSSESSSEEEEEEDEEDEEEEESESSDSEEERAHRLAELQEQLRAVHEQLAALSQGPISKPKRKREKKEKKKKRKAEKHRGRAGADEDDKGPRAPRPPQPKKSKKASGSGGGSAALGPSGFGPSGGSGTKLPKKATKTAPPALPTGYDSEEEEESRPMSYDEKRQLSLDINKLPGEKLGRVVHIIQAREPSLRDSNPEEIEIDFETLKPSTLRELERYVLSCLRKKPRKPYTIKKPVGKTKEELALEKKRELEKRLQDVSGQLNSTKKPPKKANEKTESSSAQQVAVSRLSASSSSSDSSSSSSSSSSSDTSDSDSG
Method: HEK293 HiBiT-BRD2 (LgBiT stable), HEK293 HiBiT-BRD3 (LgBiT stable), and HEK293 HiBiT-BRD4 (LgBiT stable) were created using CRISPR/Cas9 to insert at HiBiT tag at the N-terminal genomic loci of BRD2, BRD3, or BRD4 in a cell line stably expressing LgBiT protein as described previously.[23]
For kinetic degradation experiments, HEK293 HiBiT-BRD2, 3, or 4 (LgBiT stable) cells and HEK293 HiBiT-BRD4 (LgBiT) CRBN KO and VHL KO cells were plated at 20,000 cells/well in DMEM +10% FBS in white 96-well tissue culture plates and allowed to adhere overnight. The next day, media was removed and 90 μL of prewarmed CO2-independent medium (Gibco) containing Endurazine (Promega) at a 1:100 dilution from stock was added. Plates were incubated at 37 °C for 3 h to allow luminescence to equilibrate. A threefold dilution series of each PROTAC at 10x the desired final concentration was prepared (with the amount of DMSO in each treatment condition kept constant). After luminescence equilibration, a preread luminescence measurement was taken (prior to compound addition) to allow for baseline normalization to account for possible plating differences. Cells were then treated with 10 μL of the prepared PROTAC dilution series (in triplicate or quadruplicate). Treated plates were placed in a GloMax Discover luminometer (Promega) prewarmed to 37 °C and luminescence measurements were obtained every 7 min for 24 h. Kinetic degradation plots were obtained by first normalizing time course luminescence readings in each well to the preread measurement, then to the average value of the DMSO only control at each time point. Data was analyzed using GraphPad Prism (version 8) and excel. Dmax values were identified as the lowest luminescence reading in each well. Rate constant values were calculated using a one phase exponential decay Y = (Y0-Plateau) e(K*^X) + Plateau using Prism (Y0 constrained to 1). Dmax 50 values were calculated by plotting Dmax as a function of concentration, then fitting plots using the following equation: [drawing 1] to determine IC50.

BRD2 [2] = molecular target: T1, BRD2; assay: Western blot dose-response degradation in HEK293 cells; settings: 6 h; for DC50: mean ± S.E.M. of three experiments, values marked b mean ± S.D. of two
Method: as §1, §2, §3

BRD3 = molecular target: T2, BRD3 (Homo sapiens, UniProt Q15059); assay: as above; settings: 6 h, mean ± S.E.M. of three experiments, values marked b mean ± S.D. of two
T2 construct: HiBiT, is appended to the N-terminus of endogenous BRD2, BRD3, and BRD4; endogenous in cells
T2 sequence (Q15059 whole entry): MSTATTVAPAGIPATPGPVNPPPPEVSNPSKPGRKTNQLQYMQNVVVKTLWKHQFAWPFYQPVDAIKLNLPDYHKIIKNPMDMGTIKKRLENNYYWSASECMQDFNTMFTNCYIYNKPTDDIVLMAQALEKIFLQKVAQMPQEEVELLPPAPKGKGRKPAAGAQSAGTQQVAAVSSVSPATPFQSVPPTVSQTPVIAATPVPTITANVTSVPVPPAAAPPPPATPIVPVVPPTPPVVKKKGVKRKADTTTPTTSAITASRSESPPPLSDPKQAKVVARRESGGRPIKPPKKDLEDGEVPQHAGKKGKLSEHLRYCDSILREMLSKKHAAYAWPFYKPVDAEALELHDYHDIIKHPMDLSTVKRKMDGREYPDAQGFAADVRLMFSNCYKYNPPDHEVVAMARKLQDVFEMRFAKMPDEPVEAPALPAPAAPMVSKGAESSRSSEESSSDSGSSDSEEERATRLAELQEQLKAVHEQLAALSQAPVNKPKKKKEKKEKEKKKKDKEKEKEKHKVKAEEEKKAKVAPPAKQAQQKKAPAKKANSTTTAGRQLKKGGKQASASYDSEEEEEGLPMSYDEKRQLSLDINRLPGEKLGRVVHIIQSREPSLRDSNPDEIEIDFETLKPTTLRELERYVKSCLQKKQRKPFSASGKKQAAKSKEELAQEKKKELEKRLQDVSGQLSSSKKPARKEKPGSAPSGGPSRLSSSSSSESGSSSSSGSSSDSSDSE
Method: as §1, §2, §3

BRD4^Long = molecular target: T3, BRD4^Long (Homo sapiens, UniProt O60885); assay: as above; settings: HEK293 cells, 6 h, Western blot; mean ± S.E.M. of three experiments, values marked b mean ± S.D. of two
T3 construct: Western blot data for BET, CRBN and VHL protein levels; endogenous in cells; host or cells: HEK293 (ATCC)
Method: as §1, §2, §3

BRD4^Short = molecular target: T4, BRD4^Short (Homo sapiens, UniProt O60885); assay: as above; settings: 6 h, mean ± S.E.M. of three experiments, values marked b mean ± S.D. of two
T4 construct: Western blot data for BET, CRBN and VHL protein levels; endogenous in cells; host or cells: HEK293 (ATCC)
Method: as §1, §2, §3

| fold weaker degradation of CRBN compared with aniline tethered matched pair (CRBN) [fold] | DC50 (CRBN) [nM] | λmax BRD2 (degradation rate) (BRD2 [1]) | DC50 (BRD2 [2]) [nM] | DC50 (BRD3) [nM] | DC50 (BRD4^Long) [nM] | DC50 (BRD4^Short) [nM] | DC50 (BRD2 [1]) [nM] | Dmax (BRD2 [2]) [%] | onset of the hook effect, BRD2 (BRD2 [2]) [µM] | SMILES |
| --- | --- | --- | --- | --- | --- | --- | --- | --- | --- | --- |
| 2.9 | 580 ± 240 | 1.90 h⁻¹ and 1.9 h⁻¹ | 52 ± 9.4 | 14 ± 2.9 | 14 ± 3.9 | 15 ± 2.4 |  |  |  | Cc1ncsc1-c1ccc(CNC(=O)[C@@H]2C[C@@H](O)CN2C(=O)[C@@H](NC(=O)COCC(C)(COCCOCCOCCOC(=O)C[C@@H]2N=C(c3ccc(Cl)cc3)c3c(sc(C)c3C)-n3c(C)nnc32)COCCOCCOCCN2CCN(c3cccc4c3C(=O)N(C3CCC(=O)NC3=O)C4=O)CC2)C(C)(C)C)cc1 (mixture of isomers) [AB3029 (31), (17S)-11-((2-(2-(2-(4-(2-(2,6-dioxopiperidin-3-yl)-1,3-dioxoisoindolin-4-yl)piperazin-1-yl)ethoxy)ethoxy)ethoxy)methyl)-17-((2S,4R)-4-hydroxy-2-((4-(4-methylthiazol-5-yl)benzyl)carbamoyl)pyrrolidine-1-carbonyl)-11,18,18-trimethyl-15-oxo-3,6,9,13-tetraoxa-16-azanonadecyl 2-((S)-4-(4-chlorophenyl)-2,3,9-trimethyl-6H-thieno[3,2-f][1,2,4]triazolo[4,3-a][1,4]diazepin-6-yl)acetate] |
| 3.7 | 730 ± 270 | 2.04 h⁻¹ | 28 ± 7.3 | 6.4 ± 1.9 | 7.3 ± 2.1 | 9.4 ± 1.9 | 25 |  |  | Cc1ncsc1-c1ccc(CNC(=O)[C@@H]2C[C@@H](O)CN2C(=O)[C@@H](NC(=O)COCC(C)(COCCOCCOCCOC(=O)C[C@@H]2N=C(c3ccc(Cl)cc3)c3c(sc(C)c3C)-n3c(C)nnc32)COCCOCCOCCN2CCN(c3cc4c(cc3F)C(=O)N(C3CCC(=O)NC3=O)C4=O)CC2)C(C)(C)C)cc1 (mixture of isomers) [AB3030 (32), (17S)-11-((2-(2-(2-(4-(2-(2,6-dioxopiperidin-3-yl)-6-fluoro-1,3-dioxoisoindolin-5-yl)piperazin-1-yl)ethoxy)ethoxy)ethoxy)methyl)-17-((2S,4R)-4-hydroxy-2-((4-(4-methylthiazol-5-yl)benzyl)carbamoyl)pyrrolidine-1-carbonyl)-11,18,18-trimethyl-15-oxo-3,6,9,13-tetraoxa-16-azanonadecyl 2-((S)-4-(4-chlorophenyl)-2,3,9-trimethyl-6H-thieno[3,2-f][1,2,4]triazolo[4,3-a][1,4]diazepin-6-yl)acetate] |
|  | 200 ± 110 | 1.12 h⁻¹ | 58 ± 16 | 11 ± 4.6 | 2.5 ± 0.5 | 11 ± 3.7 |  |  |  | Cc1ncsc1-c1ccc(CNC(=O)[C@@H]2C[C@@H](O)CN2C(=O)[C@@H](NC(=O)COCC(C)(COCCOCCOCCNc2cccc3c2C(=O)N(C2CCC(=O)NC2=O)C3=O)COCCOCCOCCOC(=O)C[C@@H]2N=C(c3ccc(Cl)cc3)c3c(sc(C)c3C)-n3c(C)nnc32)C(C)(C)C)cc1 (mixture of isomers) [AB3062 (23), (17S)-11-((2-(2-(2-((2-(2,6-dioxopiperidin-3-yl)-1,3-dioxoisoindolin-4-yl)amino)ethoxy)ethoxy)ethoxy)methyl)-17-((2S,4R)-4-hydroxy-2-((4-(4-methylthiazol-5-yl)benzyl)carbamoyl)pyrrolidine-1-carbonyl)-11,18,18-trimethyl-15-oxo-3,6,9,13-tetraoxa-16-azanonadecyl 2-((S)-4-(4-chlorophenyl)-2,3,9-trimethyl-6H-thieno[3,2-f][1,2,4]triazolo[4,3-a][1,4]diazepin-6-yl)acetate] |
|  | 200 ± 31 | 1.72 h⁻¹ | 14 ± 4.6 | 4.8 ± 2.4 | 0.76 ± 0.1 | 3.2 ± 0.9 | 4.7 |  |  | Cc1ncsc1-c1ccc(CNC(=O)[C@@H]2C[C@@H](O)CN2C(=O)[C@@H](NC(=O)COCC(C)(COCCOCCOCCNc2cc3c(cc2F)C(=O)N(C2CCC(=O)NC2=O)C3=O)COCCOCCOCCOC(=O)C[C@@H]2N=C(c3ccc(Cl)cc3)c3c(sc(C)c3C)-n3c(C)nnc32)C(C)(C)C)cc1 (mixture of isomers) [AB3063 (26), (17S)-11-((2-(2-(2-((2-(2,6-dioxopiperidin-3-yl)-6-fluoro-1,3-dioxoisoindolin-5-yl)amino)ethoxy)ethoxy)ethoxy)methyl)-17-((2S,4R)-4-hydroxy-2-((4-(4-methylthiazol-5-yl)benzyl)carbamoyl)pyrrolidine-1-carbonyl)-11,18,18-trimethyl-15-oxo-3,6,9,13-tetraoxa-16-azanonadecyl 2-((S)-4-(4-chlorophenyl)-2,3,9-trimethyl-6H-thieno[3,2-f][1,2,4]triazolo[4,3-a][1,4]diazepin-6-yl)acetate] |
|  | 480 ± 370 | 1.34 h⁻¹ | 75 ± 20 | 28 ± 0.8 | 12 ± 2.4 | 18 ± 3.3 | 74 |  |  | Cc1ncsc1-c1ccc(CNC(=O)[C@@H]2C[C@@H](O)CN2C(=O)[C@@H](NC(=O)COCC(C)(COCCOCCOCCNc2cccc3c2C(=O)N(C2CCC(=O)NC2=O)C3=O)COCCOCCOC(=O)C[C@@H]2N=C(c3ccc(Cl)cc3)c3c(sc(C)c3C)-n3c(C)nnc32)C(C)(C)C)cc1 (mixture of isomers) [AB3064 (25), (14S)-8-((2-(2-(2-((2-(2,6-dioxopiperidin-3-yl)-1,3-dioxoisoindolin-4-yl)amino)ethoxy)ethoxy)ethoxy)methyl)-14-((2S,4R)-4-hydroxy-2-((4-(4-methylthiazol-5-yl)benzyl)carbamoyl)pyrrolidine-1-carbonyl)-8,15,15-trimethyl-12-oxo-3,6,10-trioxa-13-azahexadecyl 2-((S)-4-(4-chlorophenyl)-2,3,9-trimethyl-6H-thieno[3,2-f][1,2,4]triazolo[4,3-a][1,4]diazepin-6-yl)acetate] |
|  | 113 ± 3.2 |  | 1 ± 0.2 | 3.5 ± 0.3 | 2.2 ± 0.1 | 2.9 ± 0.3 |  | ~80 | 1 | Cc1ncsc1-c1ccc(CNC(=O)[C@@H]2C[C@@H](O)CN2C(=O)[C@@H](NC(=O)COCC(COCCOCCOCCNc2cc3c(cc2F)C(=O)N(C2CCC(=O)NC2=O)C3=O)(COCCOCCOCCOC(=O)C[C@@H]2N=C(c3ccc(Cl)cc3)c3c(sc(C)c3C)-n3c(C)nnc32)COCCOCCOCCOC(=O)C[C@@H]2N=C(c3ccc(Cl)cc3)c3c(sc(C)c3C)-n3c(C)nnc32)C(C)(C)C)cc1 (mixture of isomers) [AB3124 (86)] |
